Biological target: T1, Human HDAC10 (Homo sapiens, UniProt Q969S8)
T1 construct: Amino acids 1-631 with Nterminal GST tag, MW=96 kDa; GST (N); purchased BioMol SE-559; host or cells: Sf9 cells, baculovirus
T1 sequence (Q969S8 1-631): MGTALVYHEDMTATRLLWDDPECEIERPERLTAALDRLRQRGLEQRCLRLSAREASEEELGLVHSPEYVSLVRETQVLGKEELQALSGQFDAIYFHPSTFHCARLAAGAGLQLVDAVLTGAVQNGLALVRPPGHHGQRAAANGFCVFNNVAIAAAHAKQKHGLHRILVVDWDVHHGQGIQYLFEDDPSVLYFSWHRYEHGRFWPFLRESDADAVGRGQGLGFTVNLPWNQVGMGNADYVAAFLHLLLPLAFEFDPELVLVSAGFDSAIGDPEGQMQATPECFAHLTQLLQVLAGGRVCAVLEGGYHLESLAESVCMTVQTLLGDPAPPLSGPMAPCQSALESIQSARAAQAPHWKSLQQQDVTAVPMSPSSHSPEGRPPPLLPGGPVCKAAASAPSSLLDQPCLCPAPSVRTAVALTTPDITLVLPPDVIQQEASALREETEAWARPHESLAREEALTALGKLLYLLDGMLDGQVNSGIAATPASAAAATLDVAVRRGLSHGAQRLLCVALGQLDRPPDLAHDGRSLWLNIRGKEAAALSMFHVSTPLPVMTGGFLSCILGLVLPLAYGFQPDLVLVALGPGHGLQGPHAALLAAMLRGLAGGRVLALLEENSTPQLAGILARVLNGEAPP
Assay: In vitro HDAC10 inhibition, fluorogenic peptide assay
Format: biochemical
Details: for IC50: read-out: IC50 (nM) of enzyme activity HDAC10
Procedure: All HDAC assays were performed using acetylated AMC-labeled peptide substrate: • Substrate for isoforms HDAC1, 2, 3, 4, 5, 6, 7, 9, 10, 11 and HeLa nuclear extract assays: Acetylated fluorogenic peptide from p53 residues 379-382 (RHKKAc) (BioMol. Cat. # KI-104). • Substrate for HDAC8 assays: Acetylated fluorogenic peptide from p53 residues 379-382 (RHKAcKAc) (BioMol. Cat. # KI-178).
Enzymes: • HDAC1 assay: 75 nM Human HDAC1 (GenBank Accession No. NM_004964): Full length with C-terminal GST tag, MW=79.9 kDa, expressed by baculovirus expression system in Sf9 cells (BioMol. Cat. # SE-456). • HDAC2 assay: 5 nM Human HDAC2 (GenBank Accession No. Q92769): Full length with C-terminal His tag, MW=60 kDa, expressed by baculovirus expression system in Sf9 cells (BioMol. Cat. # SE-500). • HDAC3 assay: 2.3 nM Human HDAC3/NcoR2 (GenBank Accession No. NM_003883 for HDAC3, GenBank Accession No.NM_006312 for NcoR2): Complex of human HDAC3, full length with C-terminal His tag, MW=49.7 kDa, and human NCOR2, N-terminal GST tag, MW=39 kDa, co-expressed in baculovirus expression system (BioMol. Cat. # SE-507). • HDAC4 assay: 266 nM Human HDAC4 (GenBank Accession No. NM_006037): Amino acids 627-1085 with N-terminal GST tag, MW=75.2 kDa, expressed in baculovirus expression system (BioMol, Hamburg, Germany). • HDAC5 assay: 588 nM Human HDAC5 (GenBank Accession No. NM_001015053): Full length with Nterminal GST tag, MW=150 kDa, expressed by baculovirus expression system in Sf9 cells (BioMol, Hamburg, Germany). • HDAC6 assay: 13 nM Human HDAC6 (GenBank Accession No. BC069243): Full length with N-terminal GST tag, MW=159 kDa, expressed by baculovirus expression system in Sf9 cells (BioMol. Cat. # SE-508). • HDAC7 assay: 962 nM Human HDAC7 (GenBank Accession No. AY302468): Amino acids 518-end with N-terminal GST tag, MW=78 kDa, expressed in baculovirus expression system (BioMol, Hamburg, Germany). • HDAC8 assay: 119 nM Human HDAC8 (GenBank Accession No. NM018486): Full length, MW=42 kDa, expressed in an E. coli expression system (BioMol. […]
The reactions were carried out in a 96-well microplate for fluorometry in a 50 μl reaction volume. […] The reaction was allowed to develop for 45 minutes at 30° C. with 5% CO2; then the fluorescent signal was measured with an excitation wavelength at 360 nm and an emission wavelength at 460 nm in a microplate-reading fluorometer (GeminiXS; Molecular Devices, Sunnyvale, Calif.). […] IC50 was calculated by fitting the experimental data to a dose-response curve. […]

Selectivity against HDAC6 (IC50 HDACx/IC50 HDAC6) HDAC10 (IC50 HDAC10/IC50 HDAC6)	IC50 [nM]	Structure (SMILES)
17.3	346	COc1ccc(-c2cc(-c3ccccc3)[nH]c2C(=O)NCCCCCC(=O)NO)cc1 [Compound A, N-[6-(hydroxyamino)-6-oxohexyl]-3-(4-methoxyphenyl)-5-phenyl-1H-pyrrole-2-carboxamide, reference compound]
	14	O=C(CCCCCNC(=O)c1[nH]c(-c2ccc(O)cc2)cc1-c1ccoc1)NO [Example 5, 3-(3-furyl)-N-(5-(hydroxycarbamoyl)pentyl)-5-(4-hydroxy-phenyl)-1H-pyrrole-2-carboxamide]
	47	O=C(CCCCCNC(=O)c1[nH]c(-c2ccc(O)cc2)cc1-c1ccsc1)NO [Example 6, N-(5-(hydroxycarbamoyl)pentyl)-5-(4-hydroxyphenyl)-3-(3-thienyl)-1H-pyrrole-2-carboxamide]

From US20150038545A1, “HYDROXYPHENYL PYRROLE COMPOUNDS CONTAINING AN HYDROXAMIC ACID AS HDAC INHIBITORS AND MEDICINAL APPLICATIONS THEREOF” (UNIVERSIDAD DEL PAÍS VASCO, priority 2011, published 2015)
